The values that follow are results of earlier work, collected in patent publication US20220184108A1, “PHARMACEUTICAL AND NUTRITIONAL COMPOSITION TO MAXIMIZE NAD ENZYME'S HEALTH BENEFITS” (East West Products Corp., priority 2020, published 2022).

The conditions of data set [1]: doses of up to 500 mg; human study, Keio University School of Medicine.
A further data set concerns the target T1, Slc12a8 NMN transporter (Mus musculus, UniProt Q8VI23).
T1 sequence (Q8VI23 1-705): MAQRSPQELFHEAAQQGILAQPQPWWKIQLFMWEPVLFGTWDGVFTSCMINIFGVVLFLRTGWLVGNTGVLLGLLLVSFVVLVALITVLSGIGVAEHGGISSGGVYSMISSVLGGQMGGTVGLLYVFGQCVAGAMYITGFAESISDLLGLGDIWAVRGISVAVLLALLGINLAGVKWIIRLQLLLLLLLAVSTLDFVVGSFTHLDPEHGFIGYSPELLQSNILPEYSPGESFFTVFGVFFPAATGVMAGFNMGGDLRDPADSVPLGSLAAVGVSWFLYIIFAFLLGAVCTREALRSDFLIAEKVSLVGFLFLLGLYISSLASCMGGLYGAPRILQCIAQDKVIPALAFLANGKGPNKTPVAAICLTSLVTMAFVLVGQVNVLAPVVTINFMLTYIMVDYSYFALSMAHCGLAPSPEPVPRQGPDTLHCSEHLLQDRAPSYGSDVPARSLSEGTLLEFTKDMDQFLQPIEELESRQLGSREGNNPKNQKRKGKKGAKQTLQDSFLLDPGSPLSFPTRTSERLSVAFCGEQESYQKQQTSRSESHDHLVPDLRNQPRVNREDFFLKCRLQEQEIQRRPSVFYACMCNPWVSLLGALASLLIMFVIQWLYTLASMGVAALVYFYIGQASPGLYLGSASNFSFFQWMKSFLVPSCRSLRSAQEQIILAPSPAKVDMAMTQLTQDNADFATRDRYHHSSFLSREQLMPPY
Particulars: mice; through the Slc12a8 NMN transporter.

Regarding `NC(=O)c1ccc[n+]([C@@H]2O[C@H](COP(=O)([O-])O)[C@@H](O)[C@H]2O)c1` [NMN, Nicotinamide mononucleotide], the safety in men result in data set [1] is recorded as “safe”. Besides, at Slc12a8 NMN transporter, the “time for NMN to enter cells via the small intestines converting to NAD+” value was at most 10 min.
